Structures can show the parent of a compound that is named as a salt.

Assay [1] has as its system erythroid progenitor cells (EPCs). The experiment in a line: Fetal hemoglobin (HbF) ELISA in day 7 erythroid progenitor cells. Type of assay: cell-based, human. The note with it: Homo sapiens, Erythroid progenitor cell, HbF ELISA, day 7 EPCs, 5 days; read-out: EPC ELISA (pEC50 category) (converted). An outline of the steps: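 HbF induction was read by anti-HbF sandwich ELISA (HRP/TMB, OD450) on lysates and normalized to vehicle-treated cells. Cells were day 7 erythroid progenitors derived from human bone marrow CD34+ cells, seeded at 1,000/well with 3 U/mL rhEPO. Compound was given for 5 days at 37 °C at final concentrations […].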

Assay [2] concerns the target DNMT1 (Homo sapiens, UniProt P26358). Put plainly: DNMT1 biochemical activity, breaklight assay and/or SPA assay. To be noted: binned activity in either the breaklight or the SPA assay; for IC50: read-out: DNMT1 BioChemical (pIC50 category) (converted).

DNMT1, sequence (P26358 whole entry, looked up): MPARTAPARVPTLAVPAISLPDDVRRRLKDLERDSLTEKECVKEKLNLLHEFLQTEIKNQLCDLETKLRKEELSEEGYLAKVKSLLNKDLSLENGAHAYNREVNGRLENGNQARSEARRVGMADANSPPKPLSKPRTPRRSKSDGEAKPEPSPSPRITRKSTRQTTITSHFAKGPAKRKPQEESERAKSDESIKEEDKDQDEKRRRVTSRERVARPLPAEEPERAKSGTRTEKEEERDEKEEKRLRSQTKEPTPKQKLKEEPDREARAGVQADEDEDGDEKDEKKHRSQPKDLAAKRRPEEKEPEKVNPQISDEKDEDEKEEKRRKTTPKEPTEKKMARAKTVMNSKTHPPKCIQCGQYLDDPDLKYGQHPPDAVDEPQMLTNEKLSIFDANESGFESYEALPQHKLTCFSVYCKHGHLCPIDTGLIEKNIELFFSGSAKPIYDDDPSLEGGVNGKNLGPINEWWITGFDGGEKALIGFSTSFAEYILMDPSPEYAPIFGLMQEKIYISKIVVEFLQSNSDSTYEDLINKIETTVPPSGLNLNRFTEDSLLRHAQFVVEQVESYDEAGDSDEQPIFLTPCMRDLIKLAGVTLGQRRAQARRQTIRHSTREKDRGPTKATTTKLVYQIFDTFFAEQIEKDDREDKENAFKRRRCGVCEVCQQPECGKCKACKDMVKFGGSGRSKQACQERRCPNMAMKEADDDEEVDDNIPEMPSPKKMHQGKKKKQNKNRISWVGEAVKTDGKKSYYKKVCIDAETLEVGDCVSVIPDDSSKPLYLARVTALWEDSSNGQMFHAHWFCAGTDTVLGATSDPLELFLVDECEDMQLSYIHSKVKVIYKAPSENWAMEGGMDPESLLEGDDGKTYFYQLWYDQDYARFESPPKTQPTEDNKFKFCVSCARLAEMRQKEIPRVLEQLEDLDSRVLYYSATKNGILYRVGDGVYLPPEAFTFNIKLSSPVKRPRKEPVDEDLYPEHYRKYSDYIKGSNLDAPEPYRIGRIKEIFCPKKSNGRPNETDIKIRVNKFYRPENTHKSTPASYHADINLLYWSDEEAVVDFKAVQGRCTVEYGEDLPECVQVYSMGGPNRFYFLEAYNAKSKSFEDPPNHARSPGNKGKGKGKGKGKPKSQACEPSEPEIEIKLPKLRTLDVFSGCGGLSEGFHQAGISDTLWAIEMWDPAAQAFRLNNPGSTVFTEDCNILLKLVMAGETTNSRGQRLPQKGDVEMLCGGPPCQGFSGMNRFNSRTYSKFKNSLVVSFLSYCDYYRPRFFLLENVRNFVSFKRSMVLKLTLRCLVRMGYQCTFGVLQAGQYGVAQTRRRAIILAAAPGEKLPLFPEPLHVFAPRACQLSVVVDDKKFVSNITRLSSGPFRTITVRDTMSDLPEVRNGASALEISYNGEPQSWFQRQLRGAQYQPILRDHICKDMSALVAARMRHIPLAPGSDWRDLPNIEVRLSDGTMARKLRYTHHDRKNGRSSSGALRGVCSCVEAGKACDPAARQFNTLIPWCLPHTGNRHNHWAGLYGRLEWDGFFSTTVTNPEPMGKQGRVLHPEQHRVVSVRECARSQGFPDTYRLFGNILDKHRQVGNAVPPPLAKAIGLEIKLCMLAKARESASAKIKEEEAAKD

On to `CCc1c(C#N)c(SC(C(N)=O)c2ccc(CC(N)=O)cc2)nc(N(C)C)c1C#N` (stereo not shown) [Example 401, 2-(4-(2-Amino-2-oxoethyl)phenyl)-2-(3,5-dicyano-6-(dimethylamino)-4-ethylpyridin-2-ylthio)acetamide], for which the EC50 in assay [1] was 1 to 31.6 µM. Further, in assay [2], the “DNMT1 BioChemical (pIC50 category)” value was “D (Category D: ≥6.5)”.

Regarding `CCc1c(C#N)c(SC(C(N)=O)c2ccccc2)nc(N2CC[C@@H](N)[C@H](F)C2)c1C#N` (relative stereo) [Example 508, rel-2-((6-(trans)-4-amino-3-fluoropiperidin-1-yl)-3,5-dicyano-4-ethylpyridin-2-yl)thio)-2-phenylacetamide], in assay [1], the EC50 is under 0.316 µM. In addition, the IC50 in assay [2] is under 0.316 µM.

As to `N#Cc1c(SC(C(N)=O)c2ccccc2)nc(N2CCC(O)(CN)CC2)c(C#N)c1C1CC1` (stereo not shown) [Example 23], the EC50 in assay [1] was 1 to 31.6 µM. The “DNMT1 BioChemical (pIC50 category)” value in assay [2] was “D (Category D: ≥6.5)”.

With `CCc1c(C#N)c(SC(C(N)=O)C2CCNCC2)nc(N(C)C)c1C#N` (stereo not shown) [Example 157, 2-((3,5-dicyano-6-(dimethylamino)-4-ethylpyridin-2-yl)thio)-2-(piperidin-4-yl)acetamide], in assay [1], the EC50 was 1 to 31.6 µM. Further, in assay [2], the IC50 was 1 to 31.6 µM.

As for `CCNCCN(C)c1nc(SC(C(N)=O)c2ccccc2)c(C#N)c(CC)c1C#N` (stereo not shown) [Example 468, 2-(3,5-dicyano-4-ethyl-6-((2-(ethylamino)ethyl)(methyl)amino)pyridin-2-ylthio)-2-phenylacetamide], the EC50 in assay [1] is under 0.316 µM. Besides, in assay [2], the “DNMT1 BioChemical (pIC50 category)” value is “D (Category D: ≥6.5)”.

On to `CCc1c(C#N)c(SCc2ccc(CNC(C)=O)cc2)nc(N(C)Cc2nnc[nH]2)c1C#N` [Example 349, N-(4-(((6-(((4H-1,2,4-Triazol-3-yl)methyl)(methyl)amino)-3,5-dicyano-4-ethylpyridin-2-yl)thio)methyl)benzyl)acetamide], for which, in assay [1], the EC50 was 1 to 31.6 µM. For the same compound, in assay [2], the IC50 was 0.316 to 1 µM.

On to `CCc1c(C#N)c(SC(C(N)=O)c2ccccc2)nc(N2CCN(N)CC2)c1C#N` (stereo not shown) [Example 234, 2-((6-(4-Aminopiperazin-1-yl)-3,5-dicyano-4-ethylpyridin-2-yl)thio)-2-phenylacetamide, Trifluoroacetic Acid Salt], for which the EC50 in assay [1] is 1 to 31.6 µM. The IC50 in assay [2] was 0.316 to 1 µM.

Turning to `CCc1c(C#N)c(SCc2ccc(NC(=O)CO)cc2)nc(N2CCCN(C)CC2)c1C#N` [Example 301, N-(4-(((3,5-Dicyano-4-ethyl-6-(4-methyl-1,4-diazepan-1-yl)pyridin-2-yl)thio)methyl)phenyl)-2-hydroxyacetamide], the EC50 in assay [1] is 0.316 to 1 µM. The “DNMT1 BioChemical (pIC50 category)” value in assay [2] is listed as “D (Category D: ≥6.5)”.

`CCc1c(C#N)c(SC(C(N)=O)c2ccccc2)nc(N(C)CC(=O)NCCO)c1C#N` (stereo not shown) [Example 669, 2-((6-((2-amino-2-oxo-1-phenylethyl)thio)-3,5-dicyano-4-ethylpyridin-2-yl)(methyl)amino)-N-(2-hydroxyethyl)acetamide]: the EC50 in assay [1] was under 0.316 µM. Moreover, the “DNMT1 BioChemical (pIC50 category)” value in assay [2] is listed as “D (Category D: ≥6.5)”.

Regarding `CCc1c(C#N)c(SC(C(N)=O)c2ccccc2)nc(N(C)CCONC(=N)N)c1C#N` (stereo not shown) [Example 644, 2-((3,5-dicyano-4-ethyl-6-((2-(guanidinooxy)ethyl)(methyl)amino)pyridin-2-yl)thio)-2-phenylacetamide], the EC50 in assay [1] is 1 to 31.6 µM. For the same compound, the “DNMT1 BioChemical (pIC50 category)” value in assay [2] is listed as “D (Category D: ≥6.5)”.

In the case of `CCc1c(C#N)c(S[C@@H](C(N)=O)c2ccc(F)cc2)nc(N2CC[C@H](OP(=O)(O)O)C2)c1C#N` [Example 426, (S)-1-(6-(((R)-2-amino-1-(4-fluorophenyl)-2-oxoethyl)thio)-3,5-dicyano-4-ethylpyridin-2-yl)pyrrolidin-3-yl dihydrogen phosphate], the EC50 in assay [1] was over 31.6 µM. Besides, the IC50 in assay [2] is 1 to 31.6 µM.

Source of the values: patent publication US10975056B2 (GlaxoSmithKline Intellectual Property Development Limited, priority 2016, dated 2021).
